Legend:
cell lines = experiment: Cell apoptosis (APO-BrdU TUNEL) and cell cycle (PI) by flow cytometry; type: cell-based; conditions: Pt 100 μM, 4 h
Description: A large number of 3hydroxyl ends appeared when DNA strands became fragmented, and they were labeled with BrdUTP and terminal deoxynucleotidyl transferase (TdT) using the TUNEL technique. After DNA incorporation, BrdU could be detected through anti-BrdU antibody.
Cell apoptosis was detected using flow cytometry with the APO-BrdU™ tranferase dUTP nick end laveling (TUNEL) Assay Kit (Thermo Fisher Scientific, USA), and the phase of the cell cycle was determined using propidium iodide (PI, Thermo Fisher Scientific, USA) following the manufacturer's protocol. Cells were fixed with 1% paraformaldehyde (PFA) or ethanol before staining, and they were analyzed through flow cytometry (BD FACSVerse™, BD, Franklin Lake, N.J., USA) immediately after staining. All data were analyzed using FlowJo (7.6.1, BD, USA).

[1] = system: SCC VII-luc tumor homograft; experiment: Antitumor efficiency in immunocompetent murine tumor homograft model; type: in vivo, C3H/HeJ mice
Excerpt: We further investigated tumor inhibition on an immunocompetent murine tumor homograft model. SCC VII cell lines were subcutaneously inoculated into the right flank of C3H/HeJ mice to obtain a superficial tumor. […] Tumor volume was monitored using a Vernier caliper before the treatment and 3 days after each treatment. Furthermore, tumor growth was double confirmed using bioluminescent images (FIG. 3A). […] The ineffective therapeutic role of aPD-1, however, may be due to the following reasons. First, the renovated T cells may be too exhausted that they display impaired effector function with limited proliferative potential ^26. Second, cancer antigens may be “masked”; therefore, they cannot be identified by T-cells ^27. Third, the tumor microenvironment may contain multiple inhibitory immune cells, such as tumor-associated macrophages, which overwhelm the T-cells into have adverse effects ^28. Although the exact reason was unclear, the animal model in this study was unresponsive to systemic aPD-1 immunotherapy.
Male and female C3H/HeJ mice were purchased from The Jackson Laboratory (Bar Harbor, Me., USA) and bred in the Laboratory Animal Unit in the University of Hong Kong. All animal procedures were performed in accordance with a protocol approved by the Committee on the Used of Live Animals in Teaching and Research (CULATR, HKU). An immunocompetent murine tumor homograft model was established by injecting 1×10^6 SCC VII-luc cells suspended in 100 μL Hanks' balanced salt solution (HBSS, Gibco, USA) on the right flank of the mouse. […] The treatments were administered once the tumor volume reached 10 mm^3 and each treatment was administered every 3 days and lasted for 3 cycles. […] The tumor size was monitored by both the bioluminescence signals and the Vernier calipers every 3 days. Tumor volume was calculated as 0.5× long diameter×short diameter^2. Tumor volume and tumor wet weight were also measured after sacrifice. Tumor proliferation was determined in sliced tumor tissues using anti-Ki67 (Abcam, USA) following the IHC protocol.

[2] = system: SCC VII-luc tumor homograft; experiment: Ki-67 IHC cell proliferation in tumor tissue sections; type: in vivo, C3H/HeJ mice
Description: Cell proliferation was further confirmed through IHC in formalin-fixed paraffin-embedded tumor tissue sections. […] Tumor infiltrating lymphocytes (TILs) like CD4+ cells and CD8+ infiltrated the tumor tissue and started to proliferate after aPD-1 treatment. […] TILs attacked the tumor tissues and killed the tumor cells afterwards. Whether these proliferated cells were T-cells or tumor cells were further confirmed through flow cytometry. Additionally, tumor cell apoptosis was assessed through in situ TUNEL assay (FIG. 4B & 4D). […] In sum, aPD-1-CDDP-NPs MN can not only increase the amount of activated T-cells but also kill tumor cells.
Male and female C3H/HeJ mice were purchased from The Jackson Laboratory (Bar Harbor, Me., USA) and bred in the Laboratory Animal Unit in the University of Hong Kong. All animal procedures were performed in accordance with a protocol approved by the Committee on the Used of Live Animals in Teaching and Research (CULATR, HKU). […] The tumor size was monitored by both the bioluminescence signals and the Vernier calipers every 3 days. Tumor volume was calculated as 0.5× long diameter×short diameter^2. Tumor volume and tumor wet weight were also measured after sacrifice. Tumor proliferation was determined in sliced tumor tissues using anti-Ki67 (Abcam, USA) following the IHC protocol.

[3] = system: CD4+ and CD8+ T-cells in tumor; experiment: T-cell infiltration in tumor tissues by flow cytometry; type: in vivo, C3H/HeJ mice; conditions: tumor tissue after sacrifice
Description: (§1) To evaluate T-cell responses and the immune profile, tumor tissues and blood were harvested after sacrifice. aPD-1, being an ICB, could be a positive regulator of TILs. The infiltration of CD4+ T-cells and CD8+ T-cells into tumor cells was assessed through flow cytometry. […] To reveal the cellular mechanism in vivo, the production of IFN-γ and TNF-α was determined using ELISA kit in mice serum. […] (FIG. 5E)
A piece of tumor was collected from each mouse for flow cytometry. After execution, the tissues were rinsed with PBS and maintained in PBS at 4° C. The tumor tissues were sliced into very small pieces and sieved through 100 μm cell strainer (BD Falcon, USA). Subsequently, the sliced tissue was pressed using the plunger end of a syringe. The supernatant was decanted and the pellet resuspended the pellet in Flow Cytometry Staining Buffer (PBS plus 10% FBS). The solution was separated into two Eppendorf tubes with a volume of 300 μL, then 1 μL primary antibody was added into one of the two tubes individually. The three primary antibodies used were rabbit anti-CD4 (Abcam, Cambridge, Mass., USA), rat anti-CD8 (Abcam, USA), and mouse anti-foxp3 (Abcam,USA). […]

IFN-γ, TNF-α = experiment: Serum IFN-γ and TNF-α ELISA; type: in vivo, C3H/HeJ mice
Description: as §1
Blood was collected from mice and maintained in anticoagulative tubes ([…]® Blood Collection Tubes, K3E K3EDTA, Greiner Bio-One International, Australia). Blood was centrifuged at 1500 g for 10 minutes at 4° C., then plasma was transferred into a new Eppendorf. After centrifugation at 2000 g for 15 mins at 4° C., the supernatant was collected to obtain the serum of mice. IFN-γ and TNF-α in the serum were detected using Mouse IFN-γ ELISA kit (Thermo Fisher Scientific, USA) and Mouse TNF-α ELISA kit (Thermo Fisher Scientific, USA), respectively.

[4] = H&E staining of liver, lung, kidney and spleen; type: in vivo, C3H/HeJ mice
Excerpt: Liver, lung, kidney and spleen of each group were collected after sacrifice for hematoxylin and eosin (H&E) staining to analyze whether drugs induced toxicity to these organs (FIG. 6C).
The livers, kidneys, spleens and lungs were collected after sacrifice and fixed in 4% PFA. After embedding into paraffin, the tissues were sliced into 5-μm sections for H&E staining. Images of the tissues were collected using a polarized light microscope (ECLIPSE LV100POL, Japan). The BUN and total IgG level in the serum were detected using a urea nitrogen detection kit (Thermo Fisher Scientific, USA) and a mouse IgG total ELISA kit (ThermoFisher Scientific, USA) respectively.

Compound: N.N.[Cl][Pt][Cl] [CDDP, cis-Diammineplatinum(II)dichloride]
- cell apoptosis (cell lines): 2.79%
- antitumor effect (in words) ([1]; SCC VII homograft, three treatments): limited treatment efficacy
- tumor volume compared to control group (in words) ([1]; mouse, in vivo): no difference
- tumor weight compared to control group (in words) ([1]; mouse, in vivo): significantly reduced
- cells continuing to proliferate (Ki-67) [2]: 25%
- CD8+ T-cells among tumor cells [3]: 4.478%
- IFN-γ level in serum (IFN-γ, TNF-α): lower IFN-γ levels than other five groups
- kidney histology (H&E) ([4]; kidney): severe toxic tubular necrosis
- liver histology (H&E) ([4]; liver): some alterations were found in the liver parenchyma
- lung histology (H&E) ([4]; lung): diffuse damage of the pulmonary alveoli and severe inflammatory infiltration
- spleen histology (H&E) ([4]; spleen): white pulp was evidently reduced

Source: US20210361563A1, “TRANSDERMAL SYSTEM FOR SYNERGISTIC IMMUNE-CHEMOTHERAPY USING MICRONEEDLES AND METHOD OF TREATMENT THEREOF” (THE UNIVERSITY OF HONG KONG, priority 2020, published 2021)
